Results on twelve molecules are retold here after patent US11919869B2, “CD73 compounds” (Gilead Sciences, Inc., priority 2021, dated 2024).

Converted amounts (≈) assume the structure as drawn. Where a name gives a salt, the structure may show the parent alone. Read-outs that look alike come from different tables or passages of the source. Some results are limits rather than exact numbers.

A short description of series [1]: In vivo cyno pharmacokinetics. The note with it: cynomolgus monkeys. The method, then:
In Vivo Cyno Pharmacokinetics Experiments
In vivo cyno pharmacokinetic experiments of compound Comparator B and Example 1 were assessed as follows.
Compound Comparator B hydrochloride salt was dosed as a 30 mg/kg suspension to cynomolgus monkeys (N=3) using the following formulation: 0.5% Methocel E4M Premium, 0.1% Tween-80, 99.4% Water. Compound Comparator B free base was dosed separately as a 12.5 mg/kg (50 mg-fixed) suspension to cynomolgus monkeys (N=3) using the following formulation: 0.5% Methocel E4M Premium, 0.1% Tween-80, 99.4% Water. Compound Example 1 was dosed separately as a 12.5 mg/kg (50 mg-fixed) suspension to cynomolgus monkeys (N=3) using the following formulation: 0.5% Methocel E4M Premium, 0.1% Tween-80, 99.4% Water. […] As is shown in Table 4, the AUC 0-24 h measured for Comparator B in plasma was higher after dosing with Example 1 than the value measured after dosing with an equivalent dose of Comparator B.

Series [2] can be described thus: Kinetic solubility at pH 1 and 7. Type of series: physicochemical. To be noted: 1.0% DMSO; for solubility kinetic at 24 h: 23 °C, kinetic from dmso stock. The procedure:
Kinetic Solubility at pH 1 and 7
100-fold dilutions of each compound as DMSO stock solution were prepared by combining 3 μL of DMSO stock with 297 μL of the appropriate media in a Millipore solubility filter plate with 0.45 μM polycarbonate filter membrane using Hamilton Starlet liquid handling. The final DMSO Concentration is 1.0% and maximum theoretical compound concentration is […] (assuming stock concentration of 10 mM). The filter plate was sealed. Following 24-hour incubation at ambient temperature (22.2-23.6° C.), the samples were vacuum filtered, and the filtrates were collected in a 96 well polypropylene plate for analysis. The collection plate was sealed for analysis. Filtrates were injected into the nitrogen detector for quantification. The equimolar nitrogen response of the detector is calibrated using standards which span the dynamic range of the instrument from 0.08 to 4500 μg/ml nitrogen. The filtrates were quantified with respect to this calibration curve. The calculated solubility values are corrected for background nitrogen present in the DMSO, and the media used to prepare the samples

For series [3], the target named is T1, alkaline phosphatase (intestinal) (Bos taurus, UniProt P19111).
T1 construct: purchased MilliPore Sigma
Description: Alkaline phosphatase stability assay. Type of series: in vitro ADME. To be noted: 2 μM substrate, 100 ng/mL purified Bovine intestinal alkaline phosphatase, Tris buffer pH 7.8; read-out: ALP half life. The method, then: Alkaline Phosphatase Stability Assay
(§1) Alkaline phosphatase stability assays were carried out using purified Bovine intestinal alkaline phosphatase. Duplicate sets were performed with a TECAN liquid handler. Assay substrate concentrations were 2 μM. Purified Bovine intestinal alkaline phosphatase was acquired through MilliPore Sigma as a lyophilized powder. Reaction mixtures were prepared by the addition of 2 μL compound (400 μM stock solution in DMSO) into wells of a 96-well plate containing […] Tris buffer (100 mM, pH 7.8, 1 mM MgCl2 and 1 mM ZnCl2) with and without 100 ng/mL purified Bovine intestinal alkaline phosphatase. Samples were assessed at time points of 3, 30, 60, 120, 180 and 240 minutes. At each time point, 25 μL of the reaction mixtures were added into a 96-well plate containing 225 μL of quench solution (99% Acetonitrile with 1% Formic Acid and 100 nM Labetalol as internal standard). The plates containing the quench samples were then vortexed at 1100 RPM for 10 minutes and centrifuged at 4500 RPM for 20 minutes. 150 μL of the resulting supernatant was transferred into a 96-well plate containing 150 μL of water and vortexed at 1100 RPM for 3 minutes to mix.
(§2) Samples were analyzed with a Leap HTC Autosampler and a Dionex UltiMate 3000 HPLC system interfaced to a Thermo Q-Exactive mass spectrometer operating in positive ion electrospray mode. A Thermo Scientific Hypersil GOLD (1.9 μM particle size, 50×2.1 mm) HPLC column was used and mobile phase was pumped at 0.5 mL/min. Elution of analytes was achieved by a series of linear gradients of acetonitrile in water containing 0.1% (v/v) formic acid. Quantification was by analyte/internal standard peak area ratio (PAR).

A short description of series [4]: Assay buffer stability (Tris buffer without alkaline phosphatase). Type of series: physicochemical. To be noted: 2 μM substrate, Tris buffer pH 7.8 without alkaline phosphatase. The procedure:
as §1, §2

Series [5] can be described thus: Thermodynamic solubility in FaSSIF and FeSSIF. Type of series: physicochemical. The note with it: 20 hours, ambient temperature; for FaSSIF (pH 6.5): fasted-state simulated intestinal fluid pH 6.5; for FeSSIF (pH 5.0): fed-state simulated intestinal fluid pH 5.0. The procedure: Thermodynamic Solubility in FASSIF and FESSIF.
The aqueous solubility of compounds over a time of 20 hours was assessed. Solubility was determined at ambient temperature in buffered fasted-state simulated intestinal fluid (FaSSIF, pH 6.5) and buffered fed-state simulated intestinal fluid (FeSSIF, pH 5.0) prepared in-house using BioRelevant Simulated Intestinal Fluid (SIF) powder. Solids were added to FaSSIF or FeSSIF in 1.5-mL Eppendorf tubes, vortexed for 1 minute, then agitated for 20 hours in an Eppendorf ThermoMixer C. To determine concentration in solution, the suspensions were centrifuged for 10 min at 14,800 rpm and supernatants were diluted to a volume of 1 mL with 1:1 v/v acetonitrile:water. All diluted supernatants were analyzed by UPLC using a Waters Acquity UPLC with a PDA UV detector.

Setting [6] is: aqueous buffer, pH 7, 24-hour incubation at ambient temperature, read-out: Kinetic Solubility pH 7.
Where [7] appears, read: simulated gastric fluid, pH 1, 24-hour incubation at ambient temperature, read-out: Kinetic Solubility pH 1.
[8] abbreviates: pH 1, 24-hour incubation at ambient temperature.
The mark [9] stands for this setting: pH 7, 24-hour incubation at ambient temperature.

T1 sequence (P19111 20-506 limits assumed): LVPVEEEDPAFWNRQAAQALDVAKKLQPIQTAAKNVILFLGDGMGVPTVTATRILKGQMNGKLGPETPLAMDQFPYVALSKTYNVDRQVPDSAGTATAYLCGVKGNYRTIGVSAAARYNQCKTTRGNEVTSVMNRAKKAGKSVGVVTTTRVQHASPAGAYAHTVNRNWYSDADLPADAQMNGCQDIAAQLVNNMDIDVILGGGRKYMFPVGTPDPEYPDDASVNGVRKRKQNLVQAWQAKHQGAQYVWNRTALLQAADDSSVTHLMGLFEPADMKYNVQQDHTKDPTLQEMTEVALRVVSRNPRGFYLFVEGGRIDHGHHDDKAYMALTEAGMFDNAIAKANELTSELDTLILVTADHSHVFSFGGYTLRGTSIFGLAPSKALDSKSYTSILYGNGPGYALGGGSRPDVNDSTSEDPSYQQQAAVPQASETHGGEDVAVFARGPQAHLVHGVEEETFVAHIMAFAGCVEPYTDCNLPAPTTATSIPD

In the case of `CC1(C)CN(c2cc(-c3c[nH]c(=O)[nH]c3=O)nn3ccnc23)CC1(F)F` [Comparator B HCl salt, 5-[8-(3,3-difluoro-4,4-dimethyl-pyrrolidin-1-yl)imidazo[1,2-b]pyridazin-6-yl]-1H-pyrimidine-2,4-dione, reference compound], the AUC(0-t) in series [1] (cynomolgus monkey, 120 mg fixed (30 mg/kg) suspension, Comparator B measured in plasma, read-out: Comparator B AUC 0-24 h) was 33.2 µM·h.

As a reminder, the kinetic solubility is solubility judged after dilution from a stock solution rather than from solid. As to `O=c1c(-c2cc([C@H]3C[C@@H]3c3ccc4cnn(CC(F)(F)F)c4c3)n3nccc3n2)cn(COP(=O)(O)O)c(=O)n1COP(=O)(O)O` [Example 7, (2,4-dioxo-5-(7-((1S,2S)-2-(1-(2,2,2-trifluoroethyl)-1H-indazol-6-yl)cyclopropyl)pyrazolo[1,5-a]pyrimidin-5-yl)pyrimidine-1,3(2H,4H)-diyl)bis(methylene) bis(dihydrogen phosphate)], the figures for the solubility (kinetic) at 24 h in series [2] (setting [6]) and in series [2] (setting [7]) were above 100 µM and 89 µM, respectively.

In general, half-life refers to how long it takes for the measured level to halve. In the case of `O=c1[nH]c(=O)n(COP(=O)(O)O)cc1-c1cc([C@H]2C[C@@H]2c2ccc3cnn(CC(F)(F)F)c3c2)n2nccc2n1` [Example 6, (2,4-dioxo-5-(7-((1S,2S)-2-(1-(2,2,2-trifluoroethyl)-1H-indazol-6-yl)cyclopropyl)pyrazolo[1,5-a]pyrimidin-5-yl)-3,4-dihydropyrimidin-1(2H)-yl)methyl dihydrogen phosphate], the results for the half-life at 2 µM in series [3] and in series [4] were 8 min and above 1580 min, respectively. For the same molecule, the solubility (kinetic) at 24 h in series [2] (setting [6]) is 85 µM; in series [2] (setting [7]), 10 µM.

Turning to “5-(3-fluoro-8-((1S,2S)-2-(1-(2,2,2-trifluoroethyl)-1H-pyrazolo[3,4-b]pyridin-6-yl)cyclopropyl)imidazo[1,2-b]pyridazin-6-yl)pyrimidine-2,4(1H,3H)-dione [reference compound]”, the “Kinetic Solubility pH 1” value in series [2] (setting [8]) is reported as 9 uM. Further, the “Kinetic Solubility pH 7” value in series [2] (setting [9]) is reported as 6 uM.

On to `CC1(C)CN(c2cc(-c3c[nH]c(=O)[nH]c3=O)nn3ccnc23)CC1(F)F` [B, 5-[8-(3,3-difluoro-4,4-dimethyl-pyrrolidin-1-yl)imidazo[1,2-b]pyridazin-6-yl]-1H-pyrimidine-2,4-dione, reference compound], for which, in series [5], the “FaSSIF (pH 6.5)” value was 12 ug/mL and the “FeSSIF (pH 5.0)” value is 33 ug/mL. In series [2] (setting [6]), the solubility (kinetic) at 24 h is 5 µM (≈ 1.81 µg/mL). Also, in series [2] (setting [7]), the kinetic solubility at 24 h is 95 µM (≈ 34.4 µg/mL).

On to “5-(8-((1S,2S)-2-(1-(2,2,2-trifluoroethyl)-1H-indazol-5-yl)cyclopropyl)imidazo[1,2-b]pyridazin-6-yl)pyrimidine-2,4(1H,3H)-dione [reference compound]”, for which, in series [5], the “FaSSIF (pH 6.5)” value is reported as 0.7 ug/mL and the “FeSSIF (pH 5.0)” value is 12.4 ug/mL. For the same molecule, in series [2] (setting [8]), the “Kinetic Solubility pH 1” value came out at 72 uM. The “Kinetic Solubility pH 7” value in series [2] (setting [9]) was 10 uM.

Take “5-(7-((1S,2S)-2-(1-(2,2,2-trifluoroethyl)-1H-indazol-6-yl)cyclopropyl)pyrazolo[1,5-a]pyrimidin-5-yl)pyrimidine-2,4(1H,3H)-dione [reference compound]”: in series [5], the “FaSSIF (pH 6.5)” value is 0.5 ug/mL and the “FeSSIF (pH 5.0)” value is 11.1 ug/mL. In addition, in series [2] (setting [8]), the “Kinetic Solubility pH 1” value is 65 uM. Besides, in series [2] (setting [9]), the “Kinetic Solubility pH 7” value is on record as 7 uM.

Take `O=c1[nH]c(=O)n(COP(=O)(O)O)cc1-c1cc([C@H]2C[C@@H]2c2ccc3cnn(CC(F)(F)F)c3c2)c2nccn2n1` [Example 2, (2,4-dioxo-5-(8-((1S,2S)-2-(1-(2,2,2-trifluoroethyl)-1H-indazol-6-yl)cyclopropyl)imidazo[1,2-b]pyridazin-6-yl)-3,4-dihydropyrimidin-1(2H)-yl)methyl dihydrogen phosphate]: the half-life at 2 µM in series [3] stood at 11 min. Also, the values for the solubility (kinetic) at 24 h in series [2] (setting [6]) and in series [2] (setting [7]) were 89 µM and 3 µM, respectively.

For the molecule `CC1(C)CN(c2cc(-c3cn(COP(=O)(O)O)c(=O)[nH]c3=O)nn3ccnc23)CC1(F)F` [Example 1, (5-(8-(3,3-difluoro-4,4-dimethylpyrrolidin-1-yl)imidazo[1,2-b]pyridazin-6-yl)-2,4-dioxo-3,4-dihydropyrimidin-1(2H)-yl)methyl dihydrogen phosphate], in series [1] (12.5 mg/kg (50 mg-fixed) suspension), the “AUC 0-24 h measured for Comparator B in plasma, compared with dosing an equivalent dose of Comparator B” value is given as “higher”. Moreover, the figures for the half-life at 2 µM in series [3] and in series [4] were 10 min and above 1580 min, respectively. Besides, the “FaSSIF (pH 6.5)” value in series [5] was above 1000 ug/mL. Also, in series [5], the “FeSSIF (pH 5.0)” value is listed as above 1000 ug/mL. The kinetic solubility at 24 h in series [2] (setting [6]) and in series [2] (setting [7]) was above 100 µM throughout.

As to `O=c1[nH]cc(-c2cc([C@H]3C[C@@H]3c3ccc4cnn(CC(F)(F)F)c4n3)c3ncc(F)n3n2)c(=O)[nH]1` [E, reference compound], the kinetic solubility at 24 h in series [2] (setting [6]) is 8 µM (≈ 3.89 µg/mL); in series [2] (setting [7]), 94 µM (≈ 45.7 µg/mL).

In the case of `O=c1[nH]c(=O)n(COP(=O)(O)O)cc1-c1cc([C@H]2C[C@@H]2c2ccc3cnn(CC(F)(F)F)c3n2)c2ncc(F)n2n1` [Example 5, (5-(3-fluoro-8-((1S,2S)-2-(1-(2,2,2-trifluoroethyl)-1H-pyrazolo[3,4-b]pyridin-6-yl)cyclopropyl)imidazo[1,2-b]pyridazin-6-yl)-2,4-dioxo-3,4-dihydropyrimidin-1(2H)-yl)methyl dihydrogen phosphate], the half-life at 2 µM in series [3] was 14 min; in series [4] it was above 1580 min. For the same molecule, the solubility (kinetic) at 24 h in series [2] (setting [6]) is 86 µM; in series [2] (setting [7]), 79 µM.

In the case of `O=c1c(-c2cc([C@H]3C[C@@H]3c3ccc4cnn(CC(F)(F)F)c4c3)c3ncc(F)n3n2)cn(COP(=O)(O)O)c(=O)n1COP(=O)(O)O` [Example 3, (5-(3-fluoro-8-((1S,2S)-2-(1-(2,2,2-trifluoroethyl)-1H-indazol-6-yl)cyclopropyl)imidazo[1,2-b]pyridazin-6-yl)-2,4-dioxopyrimidine-1,3(2H,4H)-diyl)bis(methylene) bis(dihydrogen phosphate)], the kinetic solubility at 24 h in series [2] (setting [6]) is above 100 µM; in series [2] (setting [7]) it was 91 µM.
